Measured values as given in patent US20250073249A1, “STEROID COMPOUND, AND PREPARATION METHOD THEREFOR AND USE THEREOF” (SHANGHAI INSTITUTE OF MATERIA MEDICA, CHINESE ACADEMY OF …, priority 2022, published 2025).

Assays:
Type in all cases: cell-based
AR = target: T1, AR (Homo sapiens, UniProt P10275, T878A); assay: In vitro AR degradation activity test in LNCaP cells (ELISA, OD450); conditions: LNCaP cells, 24 hours
T1 construct: endogenous in cells; host or cells: LNCaP
T1 sequence (P10275 1-920 T878A): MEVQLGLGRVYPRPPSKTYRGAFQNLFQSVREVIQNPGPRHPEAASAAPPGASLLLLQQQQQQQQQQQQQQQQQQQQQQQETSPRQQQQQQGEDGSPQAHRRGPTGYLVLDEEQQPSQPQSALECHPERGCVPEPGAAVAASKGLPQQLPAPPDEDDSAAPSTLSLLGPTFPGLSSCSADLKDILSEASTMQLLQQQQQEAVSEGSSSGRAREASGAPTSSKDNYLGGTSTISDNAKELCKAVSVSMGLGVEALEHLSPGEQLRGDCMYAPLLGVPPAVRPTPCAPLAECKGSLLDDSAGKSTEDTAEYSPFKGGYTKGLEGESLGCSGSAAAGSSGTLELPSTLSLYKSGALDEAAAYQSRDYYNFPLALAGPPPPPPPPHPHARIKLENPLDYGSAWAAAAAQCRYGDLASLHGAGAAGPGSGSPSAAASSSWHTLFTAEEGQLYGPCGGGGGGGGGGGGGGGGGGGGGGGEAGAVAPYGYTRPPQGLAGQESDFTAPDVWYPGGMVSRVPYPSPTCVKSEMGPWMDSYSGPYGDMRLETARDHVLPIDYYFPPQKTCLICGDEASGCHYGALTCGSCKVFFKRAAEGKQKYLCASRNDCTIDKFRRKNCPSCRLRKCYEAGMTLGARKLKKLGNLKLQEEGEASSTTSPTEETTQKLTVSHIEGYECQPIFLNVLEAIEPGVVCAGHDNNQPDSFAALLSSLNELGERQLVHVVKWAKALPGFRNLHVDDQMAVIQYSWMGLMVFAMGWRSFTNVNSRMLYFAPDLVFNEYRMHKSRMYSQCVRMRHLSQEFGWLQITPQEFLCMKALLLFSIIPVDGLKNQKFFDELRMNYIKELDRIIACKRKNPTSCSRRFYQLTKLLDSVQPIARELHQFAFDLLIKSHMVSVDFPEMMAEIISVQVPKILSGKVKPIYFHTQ
Protocol: The cells were then digested with trypsin and counted using an automated cell counter. The cell suspension was diluted to the desired density in growth medium. The cell suspension was then seeded into 96-well plates at 100 μL per well, and the plates were incubated at 37° C. with 5% CO2 for 24 hours. The compounds were then diluted 200-fold to the final concentration with DMSO or 3-fold to the final concentration with culture medium. 50 μL of compound solution was transferred to the 96-well plate and incubated at 37° C. for 24 hours. After 24 hours of incubation, the cell plate was washed 3 times with DPBS, 100 μL of 1× lysis buffer was added to each well, and placed on ice for 30 minutes. The supernatant was collected. The protein in the cell lysate samples was quantified and then diluted to the required concentration. 100 μL of cell lysate sample was added to the appropriate wells, sealed with tape and pressed firmly on top of the wells, and the plate was incubated at 37° C. for 2 hours. The plate contents were then discarded, and washed 4 times with 1× wash buffer, 200 μL per well each time. 100 μL of reconstituted detection antibody was then added, the plate was sealed with tape and incubated at 37° C. for 1 hour. The aspiration/wash step was then repeated, 100 μL of reconstituted HRP-Linked secondary antibody was added to each well, the plate was sealed with tape and incubated at 37° C. for 30 minutes. The aspiration/wash step was then repeated, 100 μL of substrate solution was added to each well and incubated at 37° C. for 10 minutes, and finally 100 μL of stop solution was added to each well. The plate was gently tapped to ensure thorough mixing, and the OD450 nm was recorded.
Degradation rate (%)=(OD450_max−OD450_sample)/(OD450_max−OD450_min)×100,plotted using GraphPad Prism 5 software, and IC50 is calculated using SPSS software.

TMPRSS2 = TMPRSS2 mRNA expression in A549 cells (qPCR)
ACE2 = ACE2 mRNA expression in A549 cells (qPCR)
[1] = 10 μM, 1 nM DHT, 48 h, Blank = 1

## C[C@]12CC[C@H](NC(=O)c3ccnnc3)CC1=CCC1C2CC[C@]2(C)C(n3cnc([N+](=O)[O-])c3)=CCC12 (some centres unmarked) [Compound 21]
AR
  DC50: 3.31 µM
TMPRSS2
  Expression of TMPRSS2 protein, in words: significantly downregulate
TMPRSS2; [1]
  TMPRSS2 mRNA level: 0.196
ACE2
  Expression of ACE2 protein, in words: significantly downregulate
ACE2; [1]
  ACE2 mRNA level: 0.234
